US10227331B2 (priority 2015, dated 2019)

Key:
[1] = tested on: P. aeruginosa expressing IMP-1, efflux− (MB9799); assay: Efflux: concentration of MBL inhibitor which restores susceptibility to imipenem; assay type: cell-based, Pseudomonas aeruginosa; settings: imipenem at 2 μg/mL, in the presence of a class A, C, D serine β-lactamase inhibitor closely related to relebactam
Description: (§1) The strain background is Pseudomonas aeruginosa PAO1.

[2] = tested on: P. aeruginosa expressing IMP-1, efflux+ (MB9798); assay type: cell-based, Pseudomonas aeruginosa; settings: for P. aeruginosa expressing IMP-1, efflux+ (MB9798) MITC95: imipenem at 2 μg/mL, in the presence of a class A, C, D serine β-lactamase inhibitor closely related to relebactam; for Efflux ratio: ratio MITC95 PA_9798/MITC95 PA_9799
Description: as §1

[3] = tested on: Serratia marcescens expressing IMP-1 (CL5741); assay type: cell-based; settings: with imipenem 1 μg/ml, 95% inhibition of bacterial growth; for Serratia marcescens MITC95: IMP-1 (CL5741)
Summary of the method: (§2)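 Clinical strains grown overnight on blood agar, then diluted 1:100 in 1.1× CAMHB and exposed to test compound with imipenem at 1 μg/ml. Incubation was 22–24 h at 35° C; growth was read by absorbance to find the compound concentration restoring imipenem susceptibility.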

[4] = tested on: Escherichia coli expressing NDM-1 (CLB30005, CLB30016); assay type: cell-based; settings: with imipenem 1 μg/ml, 95% inhibition of bacterial growth; for Escherichia coli MITC95: NDM-1 (CLB30016)
Summary of the method: as §2

[5] = tested on: Klebsiella pneumoniae expressing VIM-1 (IHMA599644); assay type: cell-based; settings: with imipenem 1 μg/ml, 95% inhibition of bacterial growth; for Klebsiella pneumoniae MITC95: VIM-1 (IHMA599644)
Summary of the method: as §2

IMP-1 = IMP-1 (Serratia marcescens, UniProt P52699); assay: biochemical; assay type: biochemical; settings: CCF2-FA substrate, 2 hours at 25° C; read-out: IMP-1 IC50
Summary of the method: (§3)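 Class B activity is measured in the presence of compound by fluorescence with CCF2-FA after a 2-hour incubation at 25° C. IC50 is taken from a 4-parameter fit of semi-logarithmic dose-response data.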

NDM-1 = NDM-1 (Klebsiella pneumoniae, UniProt C7C422); assay: biochemical; assay type: biochemical; settings: CCF2-FA substrate, 2 hours at 25° C; read-out: NDM-1 IC50
Summary of the method: as §3

VIM-1 = VIM-1 (Pseudomonas aeruginosa (strain ATCC 15692 / DSM 22644 / CIP 104116 / JCM 14847 / LMG 12228 / 1C / PRS 101 / PAO1), UniProt A0A0F7KYQ8); assay: biochemical; settings: CCF2-FA substrate, 2 hours at 25° C
Summary of the method: as §3

Sequence of NDM-1 (C7C422 whole entry, looked up, species assumed): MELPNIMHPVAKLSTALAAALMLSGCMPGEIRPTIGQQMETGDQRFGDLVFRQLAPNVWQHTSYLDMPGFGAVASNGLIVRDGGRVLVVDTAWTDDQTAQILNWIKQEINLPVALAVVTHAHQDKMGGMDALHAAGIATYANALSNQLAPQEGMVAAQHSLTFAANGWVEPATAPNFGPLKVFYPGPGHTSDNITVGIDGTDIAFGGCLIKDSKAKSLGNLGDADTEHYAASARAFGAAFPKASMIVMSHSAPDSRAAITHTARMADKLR
Sequence of IMP-1 (P52699 whole entry, looked up, species assumed): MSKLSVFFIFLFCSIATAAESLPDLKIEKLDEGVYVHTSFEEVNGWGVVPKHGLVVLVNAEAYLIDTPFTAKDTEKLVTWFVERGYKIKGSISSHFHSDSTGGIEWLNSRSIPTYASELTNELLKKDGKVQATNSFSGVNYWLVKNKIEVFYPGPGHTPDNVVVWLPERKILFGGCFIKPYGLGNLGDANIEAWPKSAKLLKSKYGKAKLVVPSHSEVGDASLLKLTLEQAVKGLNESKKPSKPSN

For `NS(=O)(=O)c1c(S(=O)(=O)C2CNC2)ccc(-c2cnc3ccccn23)c1-c1nn[nH]n1` [Example 9, 6-(Azetidin-3-ylsulfonyl)-3-(imidazo[1,2-a]pyridin-3-yl)-2-(2H-tetrazol-5-yl)benzenesulfonamide], the “P. aeruginosa expressing IMP-1, efflux− (MB9799) MITC95” value [1] was 1.563 µM, the “P. aeruginosa expressing IMP-1, efflux+ (MB9798) MITC95” value [2] was 6.25 µM and the Efflux ratio [2] was 4.00. For the same compound, the “Serratia marcescens expressing IMP-1 (CL5741) MITC95” value [3] was 1.563 µM, the “Escherichia coli expressing NDM-1 (CLB30016) MITC95” value [4] was 0.7813 µM and the “Klebsiella pneumoniae expressing VIM-1 (IHMA599644) MITC95” value [5] was 3.125 µM. The IC50 (IMP-1) was 0.913 nM, the IC50 (NDM-1) was 0.332 nM and the IC50 (VIM-1) was 0.375 nM.

In the case of `NC[C@@H](N)CS(=O)(=O)c1ccc(-c2ccc(N)nc2)c(-c2nn[nH]n2)c1S(N)(=O)=O` [Example 371, (R)-3-(6-aminopyridin-3-yl)-6-((2,3-diaminopropyl)sulfonyl)-2-(2H-tetrazol-5-yl) benzenesulfonamide], the “P. aeruginosa expressing IMP-1, efflux− (MB9799) MITC95” value [1] is reported as 1.563 µM, the “P. aeruginosa expressing IMP-1, efflux+ (MB9798) MITC95” value [2] is reported as 3.125 µM and the Efflux ratio [2] is reported as 2.00. For the same compound, the “Serratia marcescens MITC95” value [3] was 1.563 µM, the “Escherichia coli MITC95” value [4] was 1.563 µM and the “Klebsiella pneumoniae MITC95” value [5] was 3.125 µM. It also gave an IC50 (IMP-1) of 1.38 nM, an IC50 (NDM-1) of 1.16 nM and an IC50 (VIM-1) of 1.08 nM.

With `N#Cc1ccc(-c2ccc(S(=O)(=O)CCN)c(S(N)(=O)=O)c2-c2nnn[nH]2)cn1.O=C(O)C(F)(F)F` [Example 144, 2-((4-(6-cyanopyridin-3-yl)-2-sulfamoyl-3-(1H-tetrazol-5-yl)phenyl)sulfonyl)ethanaminium 2,2,2-trifluoroacetate] the “P. aeruginosa expressing IMP-1, efflux− (MB9799) MITC95” value [1] was 1.563 µM, the “P. aeruginosa expressing IMP-1, efflux+ (MB9798) MITC95” value [2] was 50 µM and the Efflux ratio [2] was 31.99. For the same compound, the “Serratia marcescens expressing IMP-1 (CL5741) MITC95” value [3] was 3.125 µM, the “Escherichia coli expressing NDM-1 (CLB30016) MITC95” value [4] was 0.7813 µM and the “Klebsiella pneumoniae expressing VIM-1 (IHMA599644) MITC95” value [5] was 3.125 µM. For the same compound, the IC50 (IMP-1) was 5.59 nM, the IC50 (NDM-1) was 7.21 nM and the IC50 (VIM-1) was 3.04 nM.

`Cc1ccc(-c2ccc(S(=O)(=O)[C@@H]3CCNC3)c(S(N)(=O)=O)c2-c2nn[nH]n2)c2nc(N)sc12` [Example 187, 3-(2-amino-7-methylbenzo[d]thiazol-4-yl)-6-((R)-pyrrolidin-3-ylsulfonyl)-2-(2H-tetrazol-5-yl)benzenesulfonamide] was tested, and the “P. aeruginosa expressing IMP-1, efflux− (MB9799) MITC95” value [1] was 0.7813 µM, the “P. aeruginosa expressing IMP-1, efflux+ (MB9798) MITC95” value [2] was 1.563 µM and the Efflux ratio [2] was 2.00. For the same compound, the “Serratia marcescens expressing IMP-1 (CL5741) MITC95” value [3] was 0.7813 µM, the “Escherichia coli expressing NDM-1 (CLB30016) MITC95” value [4] was 0.7813 µM and the “Klebsiella pneumoniae expressing VIM-1 (IHMA599644) MITC95” value [5] was 1.563 µM. The IC50 (IMP-1) was 0.0757 nM, the IC50 (NDM-1) was 0.0691 nM and the IC50 (VIM-1) was 0.159 nM.

In the case of `Nc1c(NCCO)cccc1-c1ccc(S(=O)(=O)C2CNC2)c(S(N)(=O)=O)c1-c1nn[nH]n1` [Example 374, 2′-Amino-4-(azetidin-3-ylsulfonyl)-3′-((2-hydroxyethyl)amino)-2-(2H-tetrazol-5-yl)-[1,1′-biphenyl]-3-sulfonamide], the “P. aeruginosa expressing IMP-1, efflux− (MB9799) MITC95” value [1] is reported as 3.125 µM, the “P. aeruginosa expressing IMP-1, efflux+ (MB9798) MITC95” value [2] is reported as 6.25 µM and the Efflux ratio [2] is reported as 2.00. The “Serratia marcescens MITC95” value [3] was 3.125 µM, the “Escherichia coli MITC95” value [4] was 3.125 µM and the “Klebsiella pneumoniae MITC95” value [5] was 6.25 µM. The IC50 (IMP-1) was 2.71 nM, the IC50 (NDM-1) was 1.42 nM and the IC50 (VIM-1) was 2.57 nM.

`NCCS(=O)(=O)c1ccc(-c2cnc3cccnc3c2)c(-c2nnn[nH]2)c1S(N)(=O)=O.O=C(O)C(F)(F)F` [Example 134, 2-((4-(1,5-naphthyridin-3-yl)-2-sulfamoyl-3-(1H-tetrazol-5-yl)phenyl)sulfonyl)ethanaminium 2,2,2-trifluoroacetate] was tested, and the “P. aeruginosa expressing IMP-1, efflux− (MB9799) MITC95” value [1] was 1.563 µM, the “P. aeruginosa expressing IMP-1, efflux+ (MB9798) MITC95” value [2] was 25 µM and the Efflux ratio [2] was 15.99. For the same compound, the “Serratia marcescens expressing IMP-1 (CL5741) MITC95” value [3] was 3.125 µM, the “Escherichia coli expressing NDM-1 (CLB30016) MITC95” value [4] was 6.25 µM and the “Klebsiella pneumoniae expressing VIM-1 (IHMA599644) MITC95” value [5] was 6.25 µM. For the same compound, the IC50 (IMP-1) was 2.47 nM, the IC50 (NDM-1) was 2.65 nM and the IC50 (VIM-1) was 0.991 nM.

In the case of `NS(=O)(=O)c1c(S(=O)(=O)C2CNC2)ccc(-c2cccc3ccnn23)c1-c1nnn[nH]1.O=C(O)C(F)(F)F` [Example 102, 3-((4-(pyrazolo[1,5-a]pyridin-7-yl)-2-sulfamoyl-3-(1H-tetrazol-5-yl)phenyl)sulfonyl)azetidin-1-ium 2,2,2-trifluoroacetate], the “P. aeruginosa expressing IMP-1, efflux− (MB9799) MITC95” value [1] is reported as 1.563 µM, the “P. aeruginosa expressing IMP-1, efflux+ (MB9798) MITC95” value [2] is reported as 3.125 µM and the Efflux ratio [2] is reported as 2.00. The “Serratia marcescens expressing IMP-1 (CL5741) MITC95” value [3] was 3.125 µM, the “Escherichia coli expressing NDM-1 (CLB30016) MITC95” value [4] was 3.125 µM and the “Klebsiella pneumoniae expressing VIM-1 (IHMA599644) MITC95” value [5] was 3.125 µM. The IC50 (IMP-1) was 0.909 nM, the IC50 (NDM-1) was 0.407 nM and the IC50 (VIM-1) was 0.457 nM.

For `NC(=O)N1CC(S(=O)(=O)c2ccc(-c3cccc4[nH]c(N)nc34)c(-c3nn[nH]n3)c2S(N)(=O)=O)C1` [Example 56, 3-(4-(2-amino-1H-benzo[d]imidazol-4-yl)-2-sulfamoyl-3-(2H-tetrazol-5-yl)phenylsulfonyl)azetidine-1-carboxamide], the “P. aeruginosa expressing IMP-1, efflux− (MB9799) MITC95” value [1] was 3.125 µM, the “P. aeruginosa expressing IMP-1, efflux+ (MB9798) MITC95” value [2] was 3.125 µM and the Efflux ratio [2] was 1.00. For the same compound, the “Serratia marcescens expressing IMP-1 (CL5741) MITC95” value [3] was 3.125 µM, the “Escherichia coli expressing NDM-1 (CLB30016) MITC95” value [4] was 6.25 µM and the “Klebsiella pneumoniae expressing VIM-1 (IHMA599644) MITC95” value [5] was 6.25 µM. The IC50 (IMP-1) was 2.82 nM, the IC50 (NDM-1) was 0.18 nM and the IC50 (VIM-1) was 0.35 nM.

In the case of `NCCS(=O)(=O)c1ccc(-c2ccc3c(c2)CNC3=O)c(-c2nnn[nH]2)c1S(N)(=O)=O.O=C(O)C(F)(F)F` [Example 166, 2-((4-(1-oxoisoindolin-5-yl)-2-sulfamoyl-3-(1H-tetrazol-5-yl)phenyl)sulfonyl)ethanaminium 2,2,2-trifluoroacetate], the “P. aeruginosa expressing IMP-1, efflux− (MB9799) MITC95” value [1] is reported as 1.563 µM, the “P. aeruginosa expressing IMP-1, efflux+ (MB9798) MITC95” value [2] is reported as 12.5 µM and the Efflux ratio [2] is reported as 8.00. The “Serratia marcescens expressing IMP-1 (CL5741) MITC95” value [3] was 3.125 µM, the “Escherichia coli expressing NDM-1 (CLB30016) MITC95” value [4] was 1.563 µM and the “Klebsiella pneumoniae expressing VIM-1 (IHMA599644) MITC95” value [5] was 6.25 µM. For the same compound, the IC50 (IMP-1) was 1.51 nM, the IC50 (NDM-1) was 2.79 nM and the IC50 (VIM-1) was 0.327 nM.
